Data taken from US11744844B2, “Selective estrogen receptor degraders” (Eli Lilly and Company, priority 2021, dated 2023).
Structures can show the parent of a compound that is named as a salt.

Experiments:
[1] = system: MCF7 ESR1 wild type cells; assay: Cell proliferation assay in MCF7; type: cell-based; conditions: Homo sapiens, 168 h, seven days, read-out: Relative IC50 MCF7 ESR1 wild type, cell proliferation
Procedure: The purpose of the following cell proliferation assays generally is to detect whether a test compound has effects on cell proliferation.
Seed MCF7 (purchased from ATCC HTB-22) cells at a density of 2,000 cells per well in DMEM phenol red free media 10% FBS (20 μL volume) (charcoal stripped) into a clear bottom 384-well cell culture plate. Plate MCF7-ESRY537N-682 (generated by CRISPR/Cas9 gene editing of ESr1 gene in MCF7 cells, clone #682) in DMEM media supplemented with 10% FBS, and 1% penicillin/streptomycin antibiotics at a density of 1000 cells per well. Incubate the plates at 37° C. and 5% CO2. The following day dose the cells with the test compound. Use an Echo 555 acoustic dispenser to prepare test compound serial dilutions (1:3) in a range from 60 μM to 0.003 μM. Dose the cells with the addition of 5 μL from the serial dilution plate to the cell plate, producing a final DMSO concentration of 0.2% with a final test compound concentration dose range between 20 and 0.001 μM. For the maximum point use media containing 0.2% of DMSO and for the minimum point use fulvestrant diluted at 2 μM final concentrations in the growth media containing 0.2% DMSO. After dosing with the test compound, incubate the cell plates at 37° C. and 5% CO2. […] Scan the plates with ACUMEN EXPLORER™ (Laser-scanning fluorescence microplate cytometer manufactured by TTP LABTECH LTD).

[2] = target: T1, Y537N mutant ERα receptor (Homo sapiens, UniProt P03372, Y537N); assay: PRα inhibition (ERα functional antagonism) cell assay in MCF7-ESR1 Y537N 682 CRISPR cells; type: cell-based; conditions: MCF7 Y537N 682 CRISPR cells (heterozygous mutant), 72 hours; read-out: Relative IC50, PRα inhibition (ERα functional antagonism)
T1 construct: generated by CRISPR/Cas9 gene editing of ESR1 gene in MCF7 cells, clone #682; endogenous in cells; host or cells: MCF7-ESR1 Y537N-682 (CRISPR/Cas9-edited MCF7, clone #682)
T1 sequence (P03372 1-595 Y537N): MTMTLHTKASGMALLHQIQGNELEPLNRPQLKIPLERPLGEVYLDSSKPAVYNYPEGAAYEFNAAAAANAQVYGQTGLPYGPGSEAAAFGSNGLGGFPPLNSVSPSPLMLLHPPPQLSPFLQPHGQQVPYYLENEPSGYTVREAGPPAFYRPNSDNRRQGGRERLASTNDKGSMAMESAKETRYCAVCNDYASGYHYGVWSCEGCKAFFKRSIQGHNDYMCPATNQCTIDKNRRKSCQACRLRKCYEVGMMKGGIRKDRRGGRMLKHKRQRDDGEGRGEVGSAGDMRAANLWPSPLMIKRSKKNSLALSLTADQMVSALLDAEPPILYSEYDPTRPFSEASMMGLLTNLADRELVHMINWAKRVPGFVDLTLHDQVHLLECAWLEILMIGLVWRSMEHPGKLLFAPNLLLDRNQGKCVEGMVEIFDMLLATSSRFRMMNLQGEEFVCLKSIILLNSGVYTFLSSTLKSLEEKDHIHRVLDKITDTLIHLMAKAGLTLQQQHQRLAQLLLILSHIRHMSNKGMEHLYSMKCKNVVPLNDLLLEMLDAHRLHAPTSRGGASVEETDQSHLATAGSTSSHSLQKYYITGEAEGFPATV
From the text: The purpose of the following PRα inhibition (ERα functional antagonism) cell assay is to determine the antagonistic activity of a test compound against the Y537N mutant ERα receptor. An antagonist in this assay is expected to block the function of the ERα receptor.
Culture MCF7-ESR1 Y537N-682 (generated by CRISPR/Cas9 gene editing of ESR1 gene in MCF7 cells, clone #682) in DMEM media supplemented with 10% FBS and 1% penicillin/streptomycin antibiotics and plate the cells (prior to becoming 70% confluent) in 384-well flat-bottom plates at a density of 4,000 cells per well in DMEM phenol red free media 10% FBS (20 μL volume) (charcoal stripped). Incubate the cells overnight in a cell culture incubator (5% CO2, 95% relative humidity and 37° C.) and allow the cells to attach to the plate. The following day dose the cells with the test compound. Use an Echo 555 acoustic dispenser to prepare compound serial dilutions (1:3) in a range from 6 μM to 0.0003 μM. […]
The following day wash the cells with PBS […] (2×20 μL) and incubate with secondary antibody (20 μL/well) (1:1000 dilution, Goat anti-rabbit IgM ALEXA FLUOR™ 488) in PBS 1% BSA for 105 minutes at room temperature. […] Scan the plates with ACUMEN EXPLORER™ [Laser-scanning fluorescence microplate cytometer manufactured by TTP LABTECH LTD] to measure PRα. […]

IC50 [1] [nM]	IC50 [2] [nM]	SMILES
550 ± 238	470 ± 58	O=C(O)[C@H]1O[C@@H](Oc2ccc3c4c(cnc3c2)-c2ccc(C(F)(F)F)cc2O[C@@H]4c2ccc(OCCN3CC(CF)C3)cc2)[C@H](O)[C@@H](O)[C@@H]1O [Example 2, (2S,3S,4S,5R,6S)-6-[[(5R)-5-[4-[2-[3-(Fluoromethyl)azetidin-1-yl]ethoxy]phenyl]-8-(trifluoromethyl)-5H-chromeno[4,3-c]quinolin-2-yl]oxy]-3,4,5-trihydroxy-tetrahydropyran-2-carboxylic acid]
518 ± 49.9	330 ± 116	O=S(=O)(O)Oc1ccc2c3c(cnc2c1)-c1ccc(C(F)(F)F)cc1O[C@@H]3c1ccc(OCCN2CC(CF)C2)cc1 [Example 1, [(5R)-5-[4-[2-[3-(Fluoromethyl)azetidin-1-yl]ethoxy]phenyl]-8-(trifluoromethyl)-5H-chromeno[4,3-c]quinolin-2-yl]hydrogen sulfate]
